Source: US20080234262A1 (Wyeth, priority 2007, published 2008)

Key:
breast line MDA468 = experiment: In vitro cell culture growth assay (MTS), MDA468; format: cell-based, human; settings: Homo sapiens, 72 h, MDA468 cells, three days after drug treatment
In short: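 Steps: plate cells; add inhibitors the next day; incubate 3 days; add MTS dye, which viable cells convert metabolically; measure absorbance at 490 nm; calculate percent of control growth relative to vehicle-treated cells in the same plate.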

PI3K = PI3K (Homo sapiens, UniProt P42336); experiment: Fluorescence polarization assay for PI3K; format: biochemical; settings: PI3Kα; read-out: PI3Kα IC50;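 further: PI3K kinase reaction on PIP2 with ATP, 30-60 min, product sensed by GST-GRP with red probe in fluorescence polarization (mP), controls without enzyme and at zero time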
Sequence of PI3K (P42336 whole entry): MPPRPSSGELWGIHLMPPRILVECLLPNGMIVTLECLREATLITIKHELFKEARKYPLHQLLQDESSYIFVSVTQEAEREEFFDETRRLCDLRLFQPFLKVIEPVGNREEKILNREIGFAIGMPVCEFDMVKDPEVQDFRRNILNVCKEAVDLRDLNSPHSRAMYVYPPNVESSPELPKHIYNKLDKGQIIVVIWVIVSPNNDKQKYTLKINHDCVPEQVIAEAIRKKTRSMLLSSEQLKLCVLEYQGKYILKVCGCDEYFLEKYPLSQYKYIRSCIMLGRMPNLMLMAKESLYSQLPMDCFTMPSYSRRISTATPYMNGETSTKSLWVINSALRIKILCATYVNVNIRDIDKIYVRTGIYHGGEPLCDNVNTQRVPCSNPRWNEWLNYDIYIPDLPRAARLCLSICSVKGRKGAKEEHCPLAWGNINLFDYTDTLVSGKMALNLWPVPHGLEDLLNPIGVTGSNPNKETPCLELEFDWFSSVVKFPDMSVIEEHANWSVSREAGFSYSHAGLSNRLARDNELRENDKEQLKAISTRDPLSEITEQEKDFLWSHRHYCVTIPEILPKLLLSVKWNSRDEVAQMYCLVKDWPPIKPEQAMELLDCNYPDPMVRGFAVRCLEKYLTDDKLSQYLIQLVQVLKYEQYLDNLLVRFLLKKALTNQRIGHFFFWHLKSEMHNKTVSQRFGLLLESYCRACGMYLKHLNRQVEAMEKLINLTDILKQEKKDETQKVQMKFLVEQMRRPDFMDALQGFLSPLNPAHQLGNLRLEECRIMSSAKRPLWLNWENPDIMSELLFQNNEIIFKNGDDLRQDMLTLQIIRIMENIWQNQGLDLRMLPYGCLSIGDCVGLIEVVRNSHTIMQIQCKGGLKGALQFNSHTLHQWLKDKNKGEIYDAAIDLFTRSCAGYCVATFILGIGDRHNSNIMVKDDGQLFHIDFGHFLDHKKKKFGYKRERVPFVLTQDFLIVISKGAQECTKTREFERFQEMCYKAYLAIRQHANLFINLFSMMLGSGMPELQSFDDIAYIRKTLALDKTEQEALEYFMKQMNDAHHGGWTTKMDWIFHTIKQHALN
Sequence of PI3K (P27986 whole entry partner): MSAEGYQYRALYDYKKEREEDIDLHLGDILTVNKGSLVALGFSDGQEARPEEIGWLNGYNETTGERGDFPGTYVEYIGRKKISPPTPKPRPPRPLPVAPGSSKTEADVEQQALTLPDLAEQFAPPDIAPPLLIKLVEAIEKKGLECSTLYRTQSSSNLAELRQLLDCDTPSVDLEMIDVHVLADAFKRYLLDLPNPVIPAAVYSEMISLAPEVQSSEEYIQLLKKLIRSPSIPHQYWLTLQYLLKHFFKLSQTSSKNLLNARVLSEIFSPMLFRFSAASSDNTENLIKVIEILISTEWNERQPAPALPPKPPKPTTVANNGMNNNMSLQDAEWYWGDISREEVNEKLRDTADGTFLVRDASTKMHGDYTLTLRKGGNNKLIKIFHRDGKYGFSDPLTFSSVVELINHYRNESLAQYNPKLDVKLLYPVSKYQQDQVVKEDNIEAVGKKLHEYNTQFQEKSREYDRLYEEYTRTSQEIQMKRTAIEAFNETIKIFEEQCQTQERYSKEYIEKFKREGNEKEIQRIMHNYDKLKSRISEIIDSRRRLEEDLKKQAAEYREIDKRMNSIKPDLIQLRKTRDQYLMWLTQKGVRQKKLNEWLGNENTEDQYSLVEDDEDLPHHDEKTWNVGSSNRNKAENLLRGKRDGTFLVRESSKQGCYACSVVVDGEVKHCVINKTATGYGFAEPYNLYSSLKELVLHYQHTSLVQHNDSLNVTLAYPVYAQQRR

prostate line LNCap = experiment: In vitro cell culture growth assay (MTS), LNCap; format: cell-based, human; settings: Homo sapiens, LNCaP, 72 h, LNCap cells, three days after drug treatment;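 further: viable cell density read by absorbance at 490 nm, growth expressed as percent of vehicle-treated cells on the same plate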

| IC50 (PI3K) | IC50 (prostate line LNCap) | SMILES | IC50 (breast line MDA468) |
| --- | --- | --- | --- |
| 39 nM | 54 nM | CNC(=O)Nc1ccc(-c2nc(N3CCOCC3)c3cnn(C4CCC(O)CC4)c3n2)cc1 (stereo not drawn) [Example 323, 1-{4-[1-(4-hydroxycyclohexyl)-4-morpholin-4-yl-1H-pyrazolo[3,4-d]pyrimidin-6-yl]phenyl}-3-methylurea] | 200 nM |
| 7030 nM | 1200 nM | COC(=O)N1CCC(n2ncc3c(N4CCOCC4)nc(-c4ccc(NC(=O)OCCCO)cc4)nc32)CC1 [Compound 909, methyl 4-[6-(4-{[(3-hydroxypropoxy)carbonyl]amino}phenyl)-4-morpholin-4-yl-1H-pyrazolo[3,4-d]pyrimidin-1-yl]piperidine-1-carboxylate] | > 60000 nM |
| 1010 nM | 150 nM | COC(=O)Nc1ccc(-c2nc(N3CCOCC3)c3cnn(C4CCN(C(=O)c5ccccc5)CC4)c3n2)cc1 [Example 442, methyl {4-[1-(1-benzoylpiperidin-4-yl)-4-morpholin-4-yl-1H-pyrazolo[3,4-d]pyrimidin-6-yl]phenyl}carbamate] | 500 nM |
| 251 nM | 190 nM | O=C(NCCF)Nc1ccc(-c2nc(N3CCOCC3)c3cnn(-c4ccccc4)c3n2)cc1 [Example 294, 1-(2-fluoroethyl)-3-[4-(4-morpholin-4-yl-1-phenyl-1H-pyrazolo[3,4-d]pyrimidin-6-yl)phenyl]urea] | 900 nM |
| 229 nM | 800 nM | O=C(NCCO)Nc1ccc(-c2nc(N3CCOCC3)c3cnn(C4CCN(C(=O)c5ccccc5)CC4)c3n2)cc1 [Example 385, 1-{4-[1-(1-benzoylpiperidin-4-yl)-4-morpholin-4-yl-1H-pyrazolo[3,4-d]pyrimidin-6-yl]phenyl}-3-(2-hydroxyethyl)urea] | 700 nM |
| 824 nM | 130 nM | CCCNC(=O)Nc1ccc(-c2nc(N3CCOCC3)c3cnn(C4CCN(C(=O)OCCC)CC4)c3n2)cc1 [Compound 853, propyl 4-(4-morpholin-4-yl-6-{4-[(propylcarbamoyl)amino]phenyl}-1H-pyrazolo[3,4-d]pyrimidin-1-yl)piperidine-1-carboxylate] | 1000 nM |
| 56 nM | 27 nM | CNC(=O)Nc1ccc(-c2nc(N3CCOCC3)c3cnn(C4CCC(=O)CC4)c3n2)cc1 [Example 322, 1-methyl-3-{4-[4-morpholin-4-yl-1-(4-oxocyclohexyl)-1H-pyrazolo[3,4-d]pyrimidin-6-yl]phenyl}urea] | 200 nM |
| 11 nM | 31 nM | O=C(Nc1ccccc1)Nc1ccc(-c2nc(N3CCOCC3)c3cnn(C4CCN(Cc5cccnc5)CC4)c3n2)cc1 [Example 339, 1-(4-{4-morpholin-4-yl-1-[1-(pyridin-3-ylmethyl)piperidin-4-yl]-1H-pyrazolo[3,4-d]pyrimidin-6-yl}phenyl)-3-phenylurea] | 200 nM |
| 366 nM | 1000 nM | Fc1ccc(CN2CCC(n3ncc4c(N5CCOCC5)nc(-c5ccc6[nH]ccc6c5)nc43)CC2)cn1 [Example 172, 1-{1-[(6-fluoropyridin-3-yl)methyl]piperidin-4-yl}-6-(1H-indol-5-yl)-4-morpholin-4-yl-1H-pyrazolo[3,4-d]pyrimidine] | 1700 nM |
| 1600 nM | 980 nM | C=CC(=O)Nc1ccc(-c2nc(N3CCOCC3)c3cnn(C4CCN(C(=O)C(C)C)CC4)c3n2)cc1 [Compound 947, N-{4-[1-(1-isobutyrylpiperidin-4-yl)-4-morpholin-4-yl-1H-pyrazolo[3,4-d]pyrimidin-6-yl]phenyl}acrylamide] | 4800 nM |
| 1890 nM | 9800 nM | COC(=O)N1CCC(n2ncc3c(N4CCOCC4)nc(-c4ccc(N/C(=N/C#N)Oc5ccccc5)cc4)nc32)CC1 [Compound 949, methyl 4-[6-(4-{[(Z)-(cyanoimino)(phenoxy)methyl]amino}phenyl)-4-morpholin-4-yl-1H-pyrazolo[3,4-d]pyrimidin-1-yl]piperidine-1-carboxylate] | 25000 nM |

The remaining lines, values behind:

| SMILES | IC50 (PI3K) | IC50 (prostate line LNCap) | IC50 (breast line MDA468) |
| --- | --- | --- | --- |
| CNC(=O)Nc1ccc(-c2nc(N3CCOCC3)c3cnn(C4CCNCC4)c3n2)cc1 [Compound 584, 1-methyl-3-[4-(4-morpholin-4-yl-1-piperidin-4-yl-1H-pyrazolo[3,4-d]pyrimidin-6-yl)phenyl]urea] | 22 nM | 500 nM | 1300 nM |
| CNC(=O)Nc1ccc(-c2nc(N3CCOCC3)c3cnn(C4CCN(C(=O)c5ccccc5Cl)CC4)c3n2)cc1 [Compound 601, 1-(4-{1-[1-(2-chlorobenzoyl)piperidin-4-yl]-4-morpholin-4-yl-1H-pyrazolo[3,4-d]pyrimidin-6-yl}phenyl)-3-methylurea] | 79 nM | < 27 nM | < 27 nM |
| O=C(Nc1ccc(-c2nc(N3CCOCC3)c3cnn(C4CCN(Cc5cccnc5)CC4)c3n2)cc1)Nc1ccsc1 [Compound 375, 1-(4-{4-morpholin-4-yl-1-[1-(pyridin-3-ylmethyl)piperidin-4-yl]-1H-pyrazolo[3,4-d]pyrimidin-6-yl}phenyl)-3-(3-thienyl)urea] | 10 nM | 34 nM | 100 nM |
| COC(=O)Nc1ccc(-c2nc(N3CCOCC3)c3cn[nH]c3n2)cc1 [Compound 279, methyl [4-(4-morpholin-4-yl-1H-pyrazolo[3,4-d]pyrimidin-6-yl)phenyl]carbamate] | 612 nM | 3000 nM | 12000 nM |
| O=C(NCC1CC1)Nc1ccc(-c2nc(N3CCOCC3)c3cnn(C4CCN(Cc5ccccc5)CC4)c3n2)cc1 [Compound 508, 1-{4-[1-(1-benzylpiperidin-4-yl)-4-morpholin-4-yl-1H-pyrazolo[3,4-d]pyrimidin-6-yl]phenyl}-3-(cyclopropylmethyl)urea] | 384 nM | 700 nM | 3000 nM |
| CCNC(=O)Nc1ccc(-c2nc(N3CCOCC3)c3cnn(C4CCN(C(=O)C(C)C)CC4)c3n2)cc1 [Compound 822, 1-ethyl-3-{4-[1-(1-isobutyrylpiperidin-4-yl)-4-morpholin-4-yl-1H-pyrazolo[3,4-d]pyrimidin-6-yl]phenyl}urea] | 1230 nM | 120 nM | 500 nM |
| O=C(Cc1ccccc1)N1CCC(n2ncc3c(N4CCOCC4)nc(-c4ccc5[nH]ccc5c4)nc32)CC1 [Compound 492, 6-(1H-indol-5-yl)-4-morpholin-4-yl-1-[1-(phenylacetyl)piperidin-4-yl]-1H-pyrazolo[3,4-d]pyrimidine] | 692 nM | 700 nM | 3000 nM |
| CC(C)N1CCC(n2ncc3c(N4CCOCC4)nc(-c4ccc5[nH]ccc5c4)nc32)CC1 [Compound 238, 6-(1H-indol-5-yl)-1-(1-isopropylpiperidin-4-yl)-4-morpholin-4-yl-1H-pyrazolo[3,4-d]pyrimidine] | 3750 nM | 2500 nM | 2900 nM |
| O=C(c1ccc(Br)nc1)N1CCC(n2ncc3c(N4CCOCC4)nc(-c4ccc5[nH]ccc5c4)nc32)CC1 [Compound 203] | 1160 nM | 1050 nM | 3000 nM |
| O=C(NCCO)Nc1ccc(-c2nc(N3CCOCC3)c3cnn(C4CCN(C(=O)c5cccnc5)CC4)c3n2)cc1 [Compound 549, 1-(2-hydroxyethyl)-3-(4-{4-morpholin-4-yl-1-[1-(pyridin-3-ylcarbonyl)piperidin-4-yl]-1H-pyrazolo[3,4-d]pyrimidin-6-yl}phenyl)urea] | 220 nM | 7500 nM | 9000 nM |
| CNCCNC(=O)Nc1ccc(-c2nc(N3CCOCC3)c3cnn(C4CCN(C(=O)c5cccnc5)CC4)c3n2)cc1 [Compound 593, 1-[2-(methylamino)ethyl]-3-(4-{4-morpholin-4-yl-1-[1-(pyridin-3-ylcarbonyl)piperidin-4-yl]-1H-pyrazolo[3,4-d]pyrimidin-6-yl}phenyl)urea] | 45 nM | 5000 nM | 9000 nM |
| O=C(Nc1ccncc1)Nc1ccc(-c2nc(N3CCOCC3)c3cnn(C4CCN(Cc5cccnc5)CC4)c3n2)cc1F [Compound 599, 1-(2-fluoro-4-{4-morpholin-4-yl-1-[1-(pyridin-3-ylmethyl)piperidin-4-yl]-1H-pyrazolo[3,4-d]pyrimidin-6-yl}phenyl)-3-pyridin-4-ylurea] | 34 nM | < 27 nM | 82 nM |
| NC(=O)Nc1cccc(-c2nc(N3CCOCC3)c3cnn(C4CCN(Cc5ccccc5)CC4)c3n2)c1 [Compound 483, N-{3-[1-(1-benzylpiperidin-4-yl)-4-morpholin-4-yl-1H-pyrazolo[3,4-d]pyrimidin-6-yl]phenyl}urea] | 2170 nM | 6800 nM | 12000 nM |
| Nc1ccc(-c2nc(N3CCOCC3)c3cnn(C4CCN(Cc5ccccc5)CC4)c3n2)cc1F [Compound 594, 4-[1-(1-benzylpiperidin-4-yl)-4-morpholin-4-yl-1H-pyrazolo[3,4-d]pyrimidin-6-yl]-2-fluoroaniline] | 1650 nM | 2000 nM | 4000 nM |
| CC(C)OC(=O)Nc1ccc(-c2nc(N3CCOCC3)c3cnn(C4CCN(Cc5ccccc5)CC4)c3n2)cc1 [Compound 208] | 3790 nM | 5800 nM | 11000 nM |
| CCCOC(=O)N1CCC(n2ncc3c(N4CCOCC4)nc(-c4ccc(NC(=O)NCC)cc4)nc32)CC1 [Compound 852, propyl 4-(6-{4-[(ethylcarbamoyl)amino]phenyl}-4-morpholin-4-yl-1H-pyrazolo[3,4-d]pyrimidin-1-yl)piperidine-1-carboxylate] | 577 nM | 80 nM | 510 nM |
| c1cc(CN2CCC(n3ncc4c(N5CCOCC5)nc(-c5ccc6[nH]ccc6c5)nc43)CC2)ccn1 [Compound 179] | 649 nM | 600 nM | 1800 nM |
| O=C1CCCN1CCn1ncc2c(N3CCOCC3)nc(-c3ccc4[nH]ccc4c3)nc21 [Compound 161] | 3510 nM | 14000 nM | 60000 nM |
